“Also recorded” adds a separate entry of the source.
Columns and labels:
κOR [1] = molecular target: T1, κOR (Homo sapiens (Human), UniProt P41145); test: Radioligand binding at κOR (PDSP); conditions: Table 2; no Ki, below 50%
MOR = MOR (Homo sapiens (Human), UniProt P35372); test: MOR functional annotations (method not given); conditions: for functional classification given with the label: binding table, compound cell; for MOR agonist (potency annotation under structure): Table 4 caption line
κOR [2] = molecular target: T1, κOR; test: Gi/o Glosensor assay at κOR; format: cell-based
C57BL/6J mice [3] = test: Tail-flick analgesia; conditions: mouse, in vivo
mice [4] = test: Formalin injection assay; conditions: mouse, in vivo
[5] = Metabolism by mouse liver microsomes; format: in vitro ADME; conditions: signaling experiments with resulting metabolite pool
μOR [6] = molecular target: T2, μOR (Homo sapiens (Human), UniProt P35372); test: Receptor internalization (PathHunter, U2OS); format: cell-based; conditions: compared to DAMGO and morphine
[7] = test system: Oprm1−/− and wild-type C57Bl/6J mice; test: Hot plate: affective/reflexive subcategorization and μOR knockout mice; format: in vivo, mouse
μOR [8] = molecular target: T2, μOR; test: β-arrestin2 recruitment by BRET with GRK2 co-expression; format: cell-based
C57BL/6J mice [9] = test: Hot-plate analgesia; format: in vivo, mouse
μOR [10] = molecular target: T2, μOR; test: β-arrestin2 recruitment by BRET without GRK2; format: cell-based; conditions: no GRK2
μOR [11] = molecular target: T2, μOR; test: β-arrestin recruitment, PathHunter enzyme complementation (OPRM1 CHO-K1); format: cell-based
[12] = Pharmacokinetics, serum and brain levels; conditions: mouse, in vivo
Description: Studies were performed by the Preclinical Therapeutics Core and the Drug Studies Unit at the University of California San Francisco. […] All studies were performed with approved mouse protocols from the institutional animal care and use committees.

μOR [13] = molecular target: T2, μOR; test: Calcium release (FLIPR); format: cell-based
Description: Calcium release was measured using a FLIPR^TETRA fluorescence imaging plate reader (Molecular Devices). Calcium release experiments were run in parallel to Gi/o Glosensor experiments with the same HEKT cells transfected with μOR, except cells for FLIPR were plated in poly-lysine coated 384-well black clear bottom cell culture plates. […] Dye was incubated for 1 hour at 37° C. Afterwards, cells were equilibrated to room temperature, and fluorescence in each well was read for the initial 10 seconds to establish a baseline. Afterwards, 10 μL of drug (3×) was added per well and the maximum-fold increase in fluorescence was determined as fold-over-baseline. Drug solutions used for the FLIPR assay were exactly the same as used for Gi/o Glosensor experiments. To activate endogenous Gq-coupled receptors as a positive control for calcium release, TFLLR-NH2 (10 μM, PAR-1 selective agonist) was used.

nociceptin receptor = nociceptin receptor (Homo sapiens (Human), UniProt P41146); test: Gi/o Glosensor assay at nociceptin receptor; format: cell-based
mice [14] = test: Whole body plethysmography (respiration); conditions: equianalgesic doses: PZM21 40 mg/kg, TRV130 […], morphine 10 mg/kg
hMOR + Gqi5 = hMOR + Gqi5 (Homo sapiens (Human), UniProt P35372); test: IP accumulation assay hMOR + Gqi5; format: cell-based; conditions: % morphine, at 10 μM
μOR [15] = molecular target: T2, μOR; format: cell-based
μOR [16] = molecular target: T2, μOR; test: Radioligand competition binding vs 3H-diprenorphine at μOR
μOR [17] = molecular target: T2, μOR; test: BRET-based cAMP accumulation assay (CAMYEL) for SAR of PZM21-29; format: cell-based; conditions: Gi/o signaling, FIG. 4 analogs
μOR [18] = molecular target: T2, μOR; test: Radioligand depletion assay for irreversible binding, wild-type μOR

CN(C)[C@@H](CNC(=O)NC[C@@H](O)c1cnn(C)c1)Cc1ccccc1 [Compound 11]
κOR Ki, given as <50% (κOR [1]): <50%

Cc1cc(O)cc(C)c1C[C@@H](CNC(=O)NCCN1C(=O)C=CC1=O)N(C)C [DD 144, (S)-1-(2-(dimethylamino)-3-(4-hydroxy-2,6-dimethylphenyl)propyl)-3-(2-(2,5-dioxo-2,5-dihydro-1H-pyrrol-1-yl)ethyl)urea]
functional classification given with the label (MOR): DD 144 (ANTAGONIST, Covalent) [drawing 455]

CN(C)[C@H](CNC(=O)NCCc1ccsc1)Cc1ccc(O)cc1 [DD 16, (S)-1-(2-(dimethylamino)-3-(4-hydroxyphenyl)propyl)-3-(2-(thiophen-3-yl)ethyl)urea]
MOR agonist (potency annotation under structure) (MOR): (23) 58 nM MOR agonist

C[C@@H](Cc1ccsc1)NC(=O)NC[C@H](Cc1ccc(O)cc1)N(C)C [PZM21, 1-[(S)-2-(Dimethylamino)-3-(4-hydroxyphenyl)propyl]-3-((S)-1-(thiophen-3-yl)propan-2-yl)urea]
κOR agonist activity (κOR [2]): no detectable | mode of action at κOR (κOR [2]; antagonist mode): antagonist | tail-flick analgesia (C57BL/6J mice [3]): no activity; also recorded: no analgesic effect | formalin injection nociception (mice [4]): active | μOR activation by metabolite pool [5]: no evidence of a metabolite with more potent activation of the μOR | μOR internalization (μOR [6]): minimal level | analgesic response in μOR knockout mice ([7]; Oprm1−/− mice, hot plate): completely ablates | affective vs reflexive component of pain ([7]; hot plate 52.5° C.): only modulates the affective component of pain; also recorded: solely confers analgesia to the affective component of pain | arrestin recruitment with over-expressed GRK2 (μOR [8]): weak arrestin recruitment efficacy; also recorded: we observe arrestin recruitment | hot-plate % MPE (C57BL/6J mice [9]; 15 minutes after highest dose tested, s.c.): 87% | hot-plate analgesia (C57BL/6J mice [9]; mouse, in vivo): dose-dependent analgesia | β-arrestin2 recruitment in the absence of GRK2 (μOR [10]): no β-arrestin2 recruitment | β-arrestin2 recruitment in PathHunter assay (μOR [11]): undetectable; also recorded: minimal recruitment; also recorded: no detectable | blood brain barrier penetration [12]: substantial fraction | calcium release (μOR [13]): no activity | nociceptin receptor agonist activity (nociceptin receptor): no detectable

Cc1cc(O)cc(C)c1C[C@@H](CNC(=O)NCCc1ccsc1)N(C)C [DD 34L, (S)-1-(2-(dimethylamino)-3-(4-hydroxy-2,6-dimethylphenyl)propyl)-3-(2-(thiophen-3-yl)ethyl)urea]
functional classification given with the label (MOR): DD 34L (ANTAGONIST) [drawing 449]

COc1ccsc1CNCC[C@@]1(c2ccccn2)CCOC2(CCCC2)C1 [TRV130, reference compound]
respiration frequency / respiratory depression (mice [14]): significantly depresses respiration at 15 minutes | arrestin recruitment with over-expressed GRK2 (μOR [8]): we observe arrestin recruitment | β-arrestin2 recruitment in the absence of GRK2 (μOR [10]): no β-arrestin2 recruitment

Cc1cc(O)cc(C)c1C[C@@H](CNC(=O)N[C@H](C)Cc1ccsc1)N(C)C [BD 131LR, 1-((S)-2-(dimethylamino)-3-(4-hydroxy-2,6-dimethylphenyl)propyl)-3-((R)-1-(thiophen-3-yl)propan-2-yl)urea]
hMOR + Gqi5 IP accumulation assay efficacy a @ 10 μM (hMOR + Gqi5): @ 10 μMa: 10%

C[C@H](Cc1ccsc1)NC(=O)NC[C@H](Cc1ccc(O)cc1)N(C)C [(S,R)-21, 1-[(S)-2-(Dimethylamino)-3-(4-hydroxyphenyl)propyl]-3-((R)-1-(thiophen-3-yl)propan-2-yl)urea]
Gi/o activation / μOR agonist activity (μOR [15]): more potent partial agonist of the μOR

CN(Cc1nnc(C2CC2)n1C)C(=O)NC[C@@H](Cc1ccccc1)N(C)C [Compound 10]
κOR Ki, given as <50% (κOR [1]): <50%

O=C(Cc1cn2ccccc2n1)NCC1(c2ccccc2)CCC1 [Compound 9]
μOR Ki column, given as <50% (μOR [16]): <50%

Cc1nc(CNC(=O)NC[C@@H](Cc2ccccc2)N(C)C)sc1C [Compound 15]
κOR Ki, given as <50% (κOR [1]): <50%

CN(C=O)[C@H](CNC(=O)NCCc1ccccc1)Cc1ccc(O)cc1 [PZM28, (S)—N-(1-(4-Hydroxyphenyl)-3-(3-phenethylureido)propan-2-yl)-N-methylformamide]
loss of potency relative to parent (μOR [17]): 1000 fold

CN(C)[C@H](CNC(=O)NCCc1cn(CCSSCCN=[N+]=[N-])nn1)Cc1ccc(O)cc1 [PZM29, (S)-1-(2-(1-(2-((2-Azidoethyl)disulfanyl)ethyl)-1H-1,2,3-triazol-4-yl)ethyl)-3-(2-(dimethylamino)-3-(4-hydroxyphenyl)propyl)urea×CF3COOH]
irreversible binding to wild-type μOR (μOR [18]): not the wild-type receptor | efficacy and potency as agonist (μOR [17]): retains its efficacy as an agonist

CC(C)[C@H](CNC(=O)c1ccc([N+](=O)[O-])s1)N1CCc2ccccc2C1 [Compound 8]
Gi/o activation / μOR agonist activity (μOR [15]): activated Gi/o

C[C@@H](Cc1ccsc1)NC(=O)NC[C@H](Cc1ccccc1)N(C)C [(S,S)-12, 1-[(S)-2-(Dimethylamino)-3-phenylpropyl]-3-[(S)-1-(thiophen-3-yl)propan-2-yl]urea]
MOR agonist (potency annotation under structure) (MOR): (S,S)-12 12 nM MOR agonist

CN(CC1CC1)[C@H](CNC(=O)NCCc1ccccc1)Cc1ccc(O)cc1 [PZM27, (S)-1-(2-((Cyclopropylmethyl)(methyl)amino)-3-(4-hydroxyphenyl)propyl)-3-phenethylurea×CF3COOH]
efficacy and potency as agonist (μOR [17]): decreased efficacy | loss of potency relative to parent (μOR [17]): 30 fold

Reference: patent US11484525B2 (priority 2015, dated 2022)
